Data on nine molecules can be found in PubChem BioAssay (NCI).

SMILES strings stand for the structures.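 Compound exposure: 48 hours, 5 concentrations, 96-well plates. At the TGI there is no net growth.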 Where only a bound is given, the exact number is not on record here.

Common to all, as to assay: inhibition of tumour cell growth, NCI panel, 48 h
Assay [1] deals with HCT-116 colon.
Assay [2] relates to SNB-75 CNS.
The subject of assay [3] is SK-MEL-28 melanoma.
Assay [4] relates to UACC-62 melanoma.
Assay [5] relates to UACC-257 melanoma.
Assay [6] relates to LOX IMVI melanoma.
In assay [7] the test system is OVCAR-3 ovarian.
The subject of assay [8] is HCT-15 colon.
Assay [9] relates to 786-0 renal.
Assay [10] concerns M14 melanoma.
The test system of assay [11] is KM12 colon.
In assay [12] the test system is RXF 393 renal.
The subject of assay [13] is SF-268 CNS.
The subject of assay [14] is OVCAR-4 ovarian.
Assay [15] deals with UO-31 renal.
Assay [16] has as its system MALME-3M melanoma.
Assay [17] has as its system T-47D breast.
Assay [18] concerns HT29 colon.
The subject of assay [19] is BT-549 breast.

Consider `O=C(c1ccco1)n1c2ccc(Br)cc2c2nc3ccccc3nc21`, for which the TGI in assay [1] is above 100 µM; in assay [2] it was 58.6 µM; in assay [3] it was above 100 µM; in [4], above 100 µM; in assay [5], above 100 µM; in [6] it was above 100 µM. Moreover, the TGI in assay [7] was above 100 µM; in assay [8], above 100 µM; in assay [9], 51 µM; in [10], above 100 µM; in assay [11], 97.6 µM; in assay [12] it was above 100 µM. The TGI in assay [13], in [14], in assay [15], in assay [16], in assay [17] and in [18] was above 100 µM in each case. The same molecule showed a TGI in [19] above 100 µM.
In the case of `CCCCn1cnnc1NS(=O)(=O)c1cc(C)c(Cl)cc1SCC(=O)O`, the TGI in [1], in assay [2], in assay [3], in [4], in assay [5] and in assay [6] was above 10 µM each time. Also, the TGI in assay [7], in assay [8], in [9], in assay [10], in assay [11] and in [12] was above 10 µM each time. Moreover, the TGI in assay [13], in assay [14], in [15], in assay [16], in assay [17] and in assay [18] was above 10 µM in each case. The TGI in [19] is above 10 µM.
Consider `c1ccc(-c2cs[s+]c2)cc1`, for which the TGI in [1], in [2], in [3], in assay [4], in [5] and in [6] was above 100 µM each time. The TGI in assay [7], in assay [8], in [9], in assay [10], in assay [11] and in [12] was above 100 µM throughout. In addition, the TGI in assay [13], in assay [14], in assay [15], in assay [16], in assay [17] and in assay [18] was above 100 µM throughout. For the same molecule, the TGI in assay [19] is above 100 µM.
As to `C(=C\c1nccs1)/c1cccc(/C=C/c2nccs2)n1`, the TGI in [1], in assay [2], in assay [3], in assay [4], in [5] and in assay [6] was above 50 µM throughout. The TGI in assay [7], in [8], in assay [9], in assay [10], in [11] and in [12] was above 50 µM throughout. In addition, the TGI in [13], in [14], in [15], in assay [16], in assay [17] and in assay [18] was above 50 µM throughout. Also, in assay [19], the TGI is above 50 µM.
For `O=C(Cn1cc(F)c(=O)[nH]c1=O)C12CC3CC(CC(C3)C1)C2`, the TGI in [1], in [2], in assay [3], in assay [4], in assay [5] and in [6] was above 100 µM each time. Moreover, the TGI in assay [7], in [8], in assay [9], in assay [10], in assay [11] and in assay [12] was above 100 µM in each case. Moreover, the TGI in assay [13], in assay [14], in [15], in assay [16], in assay [17] and in assay [18] was above 100 µM each time. The molecule also yielded a TGI in assay [19] above 100 µM.
For `COc1cc(Cn2c(=S)ss/c2=N\C(=S)N(C)C)cc(OC)c1OC`, the TGI in assay [1] was above 70.7 µM; in assay [2] it was 53.9 µM; in [3], above 100 µM; in assay [4] it was 58.6 µM; in assay [5], above 100 µM; in [6] it was above 100 µM. For the same molecule, the TGI in [7] is 13.6 µM; in assay [8] it was above 70.5 µM; in assay [9] it was above 91.3 µM; in assay [10], above 70.7 µM; in assay [11], 30.5 µM; in [12], 29.5 µM. Also, the TGI in [13] is above 75.7 µM; in assay [14] it was above 95.6 µM; in assay [15], above 100 µM; in assay [16] it was above 100 µM; in assay [17] it was above 100 µM; in assay [18], above 100 µM. In [19], the TGI is above 100 µM.
Turning to `COc1ccc(Cc2c(N)[nH]c(=O)n(C)c2=O)cc1`, the TGI in assay [1], in [2], in assay [3], in [4], in [5] and in assay [6] was above 100 µM each time. For the same molecule, the TGI in [7], in [8], in assay [9], in assay [10], in assay [11] and in assay [12] was above 100 µM each time. Also, the TGI in assay [13], in assay [14], in assay [15], in assay [16], in [17] and in assay [18] was above 100 µM in each case. The TGI in assay [19] is above 100 µM.
For `CCN(CC)c1ccc(C2SCC(=O)N2c2ccc(NC(=O)c3ccc(N4C(=O)CSC4c4ccc(N(CC)CC)cc4)cc3)cc2)cc1` (stereo unspecified), the TGI in assay [1], in assay [2], in assay [3], in assay [4], in [5] and in assay [6] was above 100 µM each time. The TGI in assay [7], in assay [8], in assay [9], in [10], in [11] and in assay [12] was above 100 µM throughout. The TGI in assay [13], in assay [14], in assay [15], in assay [16], in assay [17] and in assay [18] was above 100 µM throughout. The molecule also registered a TGI in assay [19] above 100 µM.
On to `Cc1cccc2c(=O)c3c(O)cc(O)cc3[nH]c12`, for which the TGI in assay [1], in [2], in [3], in assay [4], in assay [5] and in assay [6] was above 10 µM throughout. Also, the TGI in assay [7], in assay [8], in assay [9], in [10], in assay [11] and in assay [12] was above 10 µM each time. For the same molecule, the TGI in assay [13], in assay [14], in [15], in assay [16], in assay [17] and in assay [18] was above 10 µM in each case. The TGI in assay [19] was above 10 µM.
